Laboratory results taken from PMC5171792 (Scientific Reports, 2016).
Like-named read-outs stand apart in the source and are kept apart here.

Legend:
[1] = tested on: A/Malaysia/Muar/33/2009 (H1N1); assay: Antiviral (virus inhibition) assay in MDCK cells, plaque reduction; type: cell-based; details: Influenza A virus
MDCK cells [2] = assay: Cell cytotoxicity, cell proliferation assay with WST-1 reagent
H1N1 NA = H1N1 NA (Influenza A virus (H1N1), UniProt C3W5S3); assay: biochemical; type: biochemical
in vitro = details: dog
MDCK cells [3] = tested on: MDCK cells

Row | Structure (SMILES) | EC50 [1] | ΔGbind (estimated experimental) (H1N1 NA) | CC50 (in vitro) | further results
1 | COc1cc(/C=C/C(=O)O)ccc1O [FA, Ferulic acid, reference compound] | 1.32 ± 0.08 µM | -21 kJ/mol | – | toxicity on the MDCK cells (MDCK cells [2]): without showing any signs of toxicity at high concentrations; inhibition at 125 µg/mL (H1N1 NA; read-out: % inhibition of H1N1 NA): 86%; CC50 (in vitro; MDCK cells): 702 µM
2 | CCCOC(=O)/C=C/c1ccc(O)c(OC)c1 [MY11] | – | -18.2 kJ/mol | – | –
3 | COc1cc(C=O)ccc1O [VN, Vanillin, reference compound] | 6.05 ± 4.3 µM | -20 kJ/mol | 657 µM | toxicity on the MDCK cells (MDCK cells [3]): without showing any signs of toxicity at high concentrations
4 | CCCCOC(=O)/C=C/c1ccc(O)c(OC)c1 [MY12] | – | -16.4 kJ/mol | – | –
5 | COc1cccc(S(=O)(=O)c2ccc(/C=C/C(=O)O)cc2OC)c1 [MY18] | – | -16.4 kJ/mol | – | –
6 | CCOC(=O)/C=C/c1cc(OC)c(O)c([N+](=O)[O-])c1 [MY2] | – | -19.7 kJ/mol | – | –
7 | COc1c(O)ccc(/C=C/C(=O)O)c1[N+](=O)[O-] [MY24] | – | -18 kJ/mol | – | melting point: 165 to 169 °C
8 | CCCCOC(=O)/C=C/c1cc(OC)c(O)c([N+](=O)[O-])c1 [MY15] | ~0.95 µM | -16.4 kJ/mol | 352 µM | toxicity on the MDCK cells (MDCK cells [3]): without showing any signs of toxicity at high concentrations
9 | COc1cc(C=O)cc(O)c1O [MY23, 3-hydroxyvanillin] | 40.5 ± 3.7 µM | -22.7 kJ/mol | 601 µM | toxicity on the MDCK cells (MDCK cells [3]): significant reduction in cell viability; % inhibition of H1N1 NA (H1N1 NA): high inhibition
10 | CC(=O)N[C@H]1[C@H]([C@H](O)[C@H](O)CO)OC(C(=O)O)=C[C@@H]1O [DANA, 2-deoxy-2,3-didehydro-N-acetylneuraminic acid, reference compound] | – | -27.2 kJ/mol | – | –
11 | CCCOC(=O)/C=C/c1cc(OC)c(O)c([N+](=O)[O-])c1 [MY14] | – | -19.9 kJ/mol | – | –
12 | COc1cc(C=O)cc(NCCO)c1O [MY22] | – | -19.5 kJ/mol | – | –
13 | COc1cc(C=O)cc(N=C(N)N)c1O [MY21, guanidino vanillin] | 1.7 ± 0.02 µM | -23.4 kJ/mol | 478 µM | toxicity on the MDCK cells (MDCK cells [3]): without showing any signs of toxicity at high concentrations
14 | CCOC(=O)/C=C/c1ccc(O)c(OC)c1 [MY10] | – | -18.5 kJ/mol | – | –
15 | COc1ccc(S(=O)(=O)c2ccc(/C=C/C(=O)O)cc2OC)cc1 [MY19] | – | -18.3 kJ/mol | – | –
16 | COC(=O)/C=C/c1cc(OC)c(O)c([N+](=O)[O-])c1 [MY13] | – | -17.5 kJ/mol | – | –
17 | CCC(CC)O[C@@H]1C=C(C(=O)O)C[C@H](N)[C@H]1NC(C)=O [Oseltamivir carboxylate, reference compound] | 35 µM | – | 351 µM | –
18 | CCOC(=O)/C=C/c1cc(OC)c(OC(C)C)c([N+](=O)[O-])c1 [MY3] | 7.5 ± 9.3 µM | -22 kJ/mol | 321 µM | toxicity on the MDCK cells (MDCK cells [3]): without showing any signs of toxicity at high concentrations
19 | COc1cc(/C=C/C(=O)O)ccc1S(=O)(=O)c1ccc(Oc2ccccc2)cc1 [MY20] | – | -16.4 kJ/mol | – | –
20 | COC(=O)/C=C/c1ccc(O)c(OC)c1 [MY9] | – | -20.3 kJ/mol | – | –
